Measured values as given in patent US9686985B2, “Fungicide N-cycloalkyl-N-bicyclicmethylene-carboxamide derivatives” (BAYER INTELLECTUAL PROPERTY GMBH, priority 2012, dated 2017).
Like-named read-outs stand apart in the source and are kept apart here. Each block holds one compound with its values, some of them ahead of it.

Key:
Uromyces appendiculatus = assay: Example G: in vivo preventive test on Uromyces appendiculatus (bean rust); conditions: bean plants; for protection: summary over doses of 500 ppm and 100 ppm; for Efficacy: table G2
Description: Example G: In Vivo Preventive Test on Uromyces appendiculatus (Bean Rust) […] Bean plants (“Saxa” variety), sown in starter cups on a 50/50 peat soil pozzolana substrate and grown at 24° C., are treated at the 2 leaf stage (9 cm height) by spraying with the active ingredient prepared as described above. Plants, used as controls, are treated with the mixture of acetone/tween/DMSO/water not containing the active material. After 24 hours, the plants are contaminated by spraying the leaves with an aqueous suspension of Uromyces appendiculatus spores (150 000 spores per mL). The spores are collected from infected plants and are suspended in water containing 2.5 mL/L of Tween 80 at 10%. The contaminated bean plants are incubated for 24 hours at 20° C. and at 100% relative humidity, and then for 10 days at 20° C. and at 70-80% relative humidity. Grading (% of efficacy) is carried out 11 days after the contamination, in comparison with the control plants.

[1] = log P by HPLC on reversed-phase column (EEC Directive 79/831 Annex V.A8); assay type: physicochemical; conditions: for logP: Table 1
Description: In table 1, the log P values were determined in accordance with EEC Directive 79/831 Annex V.A8 by HPLC (High Performance Liquid Chromatography) on a reversed-phase column (C 18), using the method described below: Temperature: 40° C.; Mobile phases: 0.1% aqueous formic acid and acetonitrile; linear gradient from 10% acetonitrile to 90% acetonitrile. Calibration was carried out using unbranched alkan-2-ones (comprising 3 to 16 carbon atoms) with known log P values (determination of the log P values by the retention times using linear interpolation between two successive alkanones). lambda-max-values were determined using UV-spectra from 200 nm to 400 nm and the peak values of the chromatographic signals.

Pyrenophora teres = assay: Example N: in vivo preventive test on Pyrenophora teres (barley); conditions: table N; 500 ppm; barley plants; grading 14 days after contamination
Description: Example N: In Vivo Preventive Test on Pyrenophora teres (Barley) […] Barley plants (“Plaisant” variety), sown in starter cups on a 50/50 peat soil pozzolana substrate and grown at 22° C., are treated at the 1 leaf stage (10 cm height) by spraying with the active ingredient prepared as described above. Plants, used as controls, are treated with the mixture of acetone/tween/DMSO/water not containing the active material. After 24 hours, the plants are contaminated by spraying the leaves with an aqueous suspension of Pyrenophora teres spores (12 000 spores per mL). The spores are collected from a 12-day-old culture. The contaminated barley plants are incubated for 48 hours at 20° C. and at 100% relative humidity, and then for 12 days at 20° C. at 70-80% relative humidity. Grading (% of efficacy) is carried out 14 days after the contamination, in comparison with the control plants.

Alternaria brassicae = assay: Example D: in vivo preventive test on Alternaria brassicae (leaf spot on radish); conditions: table D; 500 ppm; radish plants; grading 6 days after contamination
Description: Example D: In Vivo Preventive Test on Alternaria brassicae (Leaf Spot on Radish) […] Radish plants (“Pernod Clair” variety), sown in starter cups on a 50/50 peat soil pozzolana substrate and grown at 17° C., are treated at the cotyledon stage by spraying with the active ingredient prepared as described above. Plants, used as controls, are treated with the mixture of acetone/tween/DMSO/water not containing the active material. After 24 hours, the plants are contaminated by spraying the cotyledons with an aqueous suspension of Alternaria brassicae spores (50 000 spores per mL). The spores are collected from a 15-day-old culture. The contaminated radish plants are incubated at 20° C. and at 100% relative humidity. Grading (% of efficacy) is carried out 6 days after the contamination, in comparison with the control plants.

[2] = HPLC C18, 40° C., 0.1% aqueous formic acid and acetonitrile gradient
[3] = reversed-phase C18 HPLC column, Table 2 (amines IIf), HPLC C18, 40° C., 0.1% aqueous formic acid and acetonitrile gradient, read-out: logP

SMILES: Cn1cc(C(=O)N(CC2CCc3ccccc32)C2CC2)c(C(F)F)n1 (stereo not shown) [CMP1, N-cyclopropyl-3-(difluoromethyl)-N-(2,3-dihydro-1H-inden-1-ylmethyl)-1-methyl-1H-pyrazole-4-carboxamide, reference compound]
- protection (Uromyces appendiculatus): high (at least 80%) to no protection
- Efficacy (Uromyces appendiculatus; dose 100 ppm): 0%
- Efficacy (Uromyces appendiculatus; dose 500 ppm): 13%

SMILES: Cc1cccc2c1CCC2CN(C(=O)c1cn(C)nc1C(F)F)C1CC1 (stereo not shown) [CMP2, N-cyclopropyl-3-(difluoromethyl)-1-methyl-N-[(4-methyl-2,3-dihydro-1H-inden-1-yl)methyl]-1H-pyrazole-4-carboxamide, reference compound]
- protection (Uromyces appendiculatus): high (at least 80%) to no protection
- Efficacy (Uromyces appendiculatus; dose 100 ppm): 0%
- Efficacy (Uromyces appendiculatus; dose 500 ppm): 80%

SMILES: Cc1ccc2c(c1)CCC2CN(C(=O)c1cn(C)nc1C(F)F)C1CC1 (stereo not shown) [CMP3, N-cyclopropyl-3-(difluoromethyl)-1-methyl-N-[(5-methyl-2,3-dihydro-1H-inden-1-yl)methyl]-1H-pyrazole-4-carboxamide, reference compound]
- protection (Uromyces appendiculatus): high (at least 80%) to no protection
- Efficacy (Uromyces appendiculatus; dose 100 ppm): 0%
- Efficacy (Uromyces appendiculatus; dose 500 ppm): 34%

SMILES: Cn1cc(C(=O)N(CC2CCc3c(F)cccc32)C2CC2)c(C(F)F)n1 (stereo not shown) [CMP4, N-cyclopropyl-3-(difluoromethyl)-N-[(4-fluoro-2,3-dihydro-1H-inden-1-yl)methyl]-1-methyl-1H-pyrazole-4-carboxamide, reference compound]
- protection (Uromyces appendiculatus): high (at least 80%) to no protection
- Efficacy (Uromyces appendiculatus; dose 100 ppm): 0%
- Efficacy (Uromyces appendiculatus; dose 500 ppm): 6%

SMILES: Cn1cc(C(=O)N(CC2CC(C)(C)c3ccccc32)C2CC2)c(C(F)F)n1 (stereo not shown) [CMP5, N-cyclopropyl-3-(difluoromethyl)-N-[(3,3-dimethyl-2,3-dihydro-1H-inden-1-yl)methyl]-1-methyl-1H-pyrazole-4-carboxamide, reference compound]
- protection (Uromyces appendiculatus): high (at least 80%) to no protection
- Efficacy (Uromyces appendiculatus; dose 100 ppm): 31%

SMILES: Cn1cc(C(=O)N(CC2CCc3cc(Cl)ccc32)C2CC2)c(C(F)F)n1 (stereo not shown) [CMP6, N-[(5-chloro-2,3-dihydro-1H-inden-1-yl)methyl]-N-cyclopropyl-3-(difluoromethyl)-1-methyl-1H-pyrazole-4-carboxamide, reference compound]
- protection (Uromyces appendiculatus): high (at least 80%) to no protection
- Efficacy (Uromyces appendiculatus; dose 100 ppm): 0%
- Efficacy (Uromyces appendiculatus; dose 500 ppm): 19%

SMILES: Cn1cc(C(=O)N(CC2CCc3cccc(Cl)c32)C2CC2)c(C(F)F)n1 (stereo not shown) [CMP7, N-[(7-chloro-2,3-dihydro-1H-inden-1-yl)methyl]-N-cyclopropyl-3-(difluoromethyl)-1-methyl-1H-pyrazole-4-carboxamide, reference compound]
- protection (Uromyces appendiculatus): high (at least 80%) to no protection
- Efficacy (Uromyces appendiculatus; dose 100 ppm): 0%
- Efficacy (Uromyces appendiculatus; dose 500 ppm): 0%

- logP [1, 2]: 3.96
SMILES: Cn1nc(C(F)F)c(C(=O)N(CC2CCc3cccc(Cl)c32)C2CC2)c1Cl (stereo not shown) [I.15]
- Efficacy (Pyrenophora teres): 71%

- logP [1, 2]: 4.08
SMILES: Cn1nc(C(F)F)c(C(=O)N(CC2CCc3cccc(Br)c32)C2CC2)c1Cl (stereo not shown) [I.22]

- logP [1, 2]: 4.11
SMILES: CC1CCC(CN(C(=O)c2c(C(F)F)nn(C)c2Cl)C2CC2)c2ccccc21 (stereo not shown) [I.25]
- Efficacy (Alternaria brassicae): 94%
- Efficacy (Pyrenophora teres): 94%

- logP [1, 2]: 4.26
SMILES: Cn1nc(C(F)F)c(C(=O)N(CC2CCCc3cccc(Cl)c32)C2CC2)c1Cl (stereo not shown) [I.29]
- Efficacy (Pyrenophora teres): 88%

- logP [1, 2]: 3.17
SMILES: Cn1nc(C(F)F)c(C(=O)N(CC2CCOc3ccccc32)C2CC2)c1Cl (stereo not shown) [I.32]
- Efficacy (Pyrenophora teres): 88%

- chromatographic logP [1]: 4.44
SMILES: Cc1cc(C)c2c(c1)C(CN(C(=O)c1c(C(F)F)nn(C)c1F)C1CC1)CCC2 (stereo not shown) [I.37, N-cyclopropyl-3-(difluoromethyl)-N-[(5,7-dimethyl-1,2,3,4-tetrahydronaphthalen-1-yl)methyl]-5-fluoro-1-methyl-1H-pyrazole-4-carboxamide]

- logP [1, 2]: 4.06
SMILES: COc1cccc2c1CCCC2CN(C(=O)c1c(C(F)F)nn(C)c1F)C1CC1C (stereo not shown) [I.38]

- logP [1, 2]: 3.96
SMILES: Cn1nc(C(F)F)c(C(=O)N(CC2(C)CCCc3ccccc32)C2CC2)c1F (stereo not shown) [I.39]

SMILES: c1ccc2c(c1)CCC2CNC1CC1 (stereo not shown) [IIf.1, N-(2,3-dihydro-1H-inden-1-ylmethyl)cyclopropanamine]
- chromatographic logP [1]: 0.75

SMILES: Cc1cccc2c1CCC2CNC1CC1 (stereo not shown) [IIf.2, N-[(4-methyl-2,3-dihydro-1H-inden-1-yl)methyl]cyclopropanamine]
- chromatographic logP [1]: 1

SMILES: Cc1ccc2c(c1)CCC2CNC1CC1 (stereo not shown) [IIf.3, N-[(5-methyl-2,3-dihydro-1H-inden-1-yl)methyl]cyclopropanamine]
- chromatographic logP [1]: 0.95

SMILES: Fc1cccc2c1CCC2CNC1CC1 (stereo not shown) [IIf.4, N-[(4-fluoro-2,3-dihydro-1H-inden-1-yl)methyl]cyclopropanamine]
- chromatographic logP [1]: 0.82

SMILES: CC1(C)CC(CNC2CC2)c2ccccc21 (stereo not shown) [IIf.5, N-[(3,3-dimethyl-2,3-dihydro-1H-inden-1-yl)methyl]cyclopropanamine]
- chromatographic logP [1]: 1.12

SMILES: Clc1ccc2c(c1)CCC2CNC1CC1 (stereo not shown) [IIf.6, N-[(5-chloro-2,3-dihydro-1H-inden-1-yl)methyl]cyclopropanamine]
- chromatographic logP [1]: 1.11

SMILES: Clc1cccc2c1C(CNC1CC1)CC2 (stereo not shown) [IIf.7, N-[(7-chloro-2,3-dihydro-1H-inden-1-yl)methyl]cyclopropanamine]
- chromatographic logP [1]: 0.95

SMILES: FC(F)(F)c1ccc2c(c1)C(CNC1CC1)CC2 (stereo not shown) [IIf.8, N-{[6-(trifluoromethyl)-2,3-dihydro-1H-inden-1-yl]methyl}cyclopropanamine]
- chromatographic logP [1]: 1.25

SMILES: Clc1cc(Cl)c2c(c1)C(CNC1CC1)CC2 (stereo not shown) [IIf.9, N-[(4,6-dichloro-2,3-dihydro-1H-inden-1-yl)methyl]cyclopropanamine]
- chromatographic logP [1]: 1.38

SMILES: Brc1cccc2c1C(CNC1CC1)CC2 (stereo not shown) [IIf.10, N-[(7-bromo-2,3-dihydro-1H-inden-1-yl)methyl]cyclopropanamine]
- chromatographic logP [1]: 1.08

SMILES: CC1(CNC2CC2)CCCc2ccccc21 (stereo not shown) [IIf.11, N-[(1-methyl-1,2,3,4-tetrahydronaphthalen-1-yl)methyl]cyclopropanamine]
- chromatographic logP [1]: 1.1

SMILES: CC1CCC(CNC2CC2)c2ccccc21 (stereo not shown) [IIf.12, N-[(4-methyl-1,2,3,4-tetrahydronaphthalen-1-yl)methyl]cyclopropanamine]
- chromatographic logP [1]: 1.22

SMILES: Cc1cc(C)c2c(c1)C(CNC1CC1)CCC2 (stereo not shown) [IIf.13, N-[(5,7-dimethyl-1,2,3,4-tetrahydronaphthalen-1-yl)methyl]cyclopropanamine]
- chromatographic logP [1]: 1.75

SMILES: COc1cccc2c1CCCC2CNC1CC1 (stereo not shown) [IIf.14, N-[(5-methoxy-1,2,3,4-tetrahydronaphthalen-1-yl)methyl]cyclopropanamine]
- chromatographic logP [1]: 1.28

SMILES: Clc1cccc2c1C(CNC1CC1)CCC2 (stereo not shown) [IIf.15, N-[(8-chloro-1,2,3,4-tetrahydronaphthalen-1-yl)methyl]cyclopropanamine]
- chromatographic logP [1]: 1.57

SMILES: c1ccc2c(c1)CCCCC2CNC1CC1 (stereo not shown) [IIf.16, N-(6,7,8,9-tetrahydro-5H-benzo[7]annulen-5-ylmethyl)cyclopropanamine]
- chromatographic logP [1]: 1.17

- chromatographic logP [1, 3]: 0.86
SMILES: c1ccc2c(c1)CSCC2CNC1CC1 (stereo not shown) [IIf.17, N-(3,4-dihydro-1H-isothiochromen-4-ylmethyl)cyclopropanamine]

- chromatographic logP [1, 3]: 1.05
SMILES: Fc1ccc2c(c1)C(CNC1CC1)CCS2 (stereo not shown) [IIf.18, N-[(6-fluoro-3,4-dihydro-2H-thiochromen-4-yl)methyl]cyclopropanamine]

- chromatographic logP [1, 3]: 1.26
SMILES: Clc1ccc2c(c1)C(CNC1CC1)CCS2 (stereo not shown) [IIf.19, N-[(6-chloro-3,4-dihydro-2H-thiochromen-4-yl)methyl]cyclopropanamine]
